Laboratory results taken from US20240358693A1, “METHODS OF TREATING PAIN” (Aisa Pharma, Inc., priority 2023, published 2024).

Test system: participants with SSc-RP
Assay: Average severity of weekly RP attacks (VAS 0-10 cm scale)
Type: in vivo, human
Text: The absolute change in average severity of weekly RP attacks (VAS 0-10 cm scale) from baseline to the end of each Dosing Period was and will be a secondary outcome variable. The sponsor-developed participant-informed diary will be used to record data. Average severity of weekly RP attacks is defined as the total severity scores of RP attacks divided by total number of RP attacks within the last 7 days of each dosing period. Total severity scores of RP attacks during the last 7 days of screening period divided by the total number of RP attacks will be used as baseline for the analysis of all periods. The variable will be calculated similar to frequency data as before.

[1] = Pooled Cilnidipine 20 mg and Cilnidipine 20 mg + Tadalafil 5 mg, n=4, Excluding Outliers, ITT Population - Part A
[2] = Pooled Cilnidipine 20 mg and Cilnidipine 20 mg + Tadalafil 5 mg, n=4, ITT Population - Part A
[3] = Pooled Cilnidipine 20 mg and Cilnidipine 20 mg + Tadalafil 5 mg, Excluding Outliers, ITT Population - Part A
[4] = Pooled Cilnidipine 20 mg and Cilnidipine 20 mg + Tadalafil 5 mg, Excluding Outliers, by Baseline RCS, first subgroup, ITT Population - Part A
[5] = Pooled Cilnidipine 20 mg and Cilnidipine 20 mg + Tadalafil 5 mg, Excluding Outliers, by Baseline RCS, second subgroup, ITT Population - Part A
[6] = Pooled Cilnidipine 20 mg and Cilnidipine 20 mg + Tadalafil 5 mg, ITT Population - Part A
[7] = Pooled Cilnidipine 20 mg and Cilnidipine 20 mg + Tadalafil 5 mg, first Baseline RCS subgroup block (not named), ITT Part A
[8] = Pooled Cilnidipine 20 mg and Cilnidipine 20 mg + Tadalafil 5 mg, first Baseline RCS subgroup block (not named), ITT Part A, score 0-10
[9] = Pooled Cilnidipine 20 mg and Cilnidipine 20 mg + Tadalafil 5 mg, second Baseline RCS subgroup block (not named), ITT Part A
[10] = Pooled Cilnidipine 20 mg and Cilnidipine 20 mg + Tadalafil 5 mg, second Baseline RCS subgroup block (not named), ITT Part A, score 0-10
[11] = Pooled Cilnidipine, n=3, Excluding Outliers, ITT Population - Part A
[12] = Pooled Cilnidipine, n=3, ITT Population - Part A
[13] = Pooled Cilnidipine, n=3, by Baseline RCS, first subgroup, ITT Population - Part A
[14] = Pooled Cilnidipine, first Baseline RCS subgroup block (not named), ITT Part A
[15] = Pooled Cilnidipine, first Baseline RCS subgroup block (not named), ITT Part A, score 0-10

SMILES: COCCOC(=O)C1=C(C)NC(C)=C(C(=O)OC/C=C/c2ccccc2)C1c1cccc([N+](=O)[O-])c1 (stereo not shown) [Cilnidipine, cilnidipine]
- Average Severity (0-10) of Weekly Symptomatic RP Attacks, Mean [1]: 3.40
- Average Severity (0-10) of Weekly Symptomatic RP Attacks, Median [1]: 3.18
- Average Severity of Weekly Symptomatic RP Attacks, Change from Baseline, Mean [1]: −1.24
- Average Severity of Weekly Symptomatic RP Attacks, Change from Baseline, Median [1]: −1.06
- Average Severity of Weekly Symptomatic RP Attacks, Percent Change from Baseline, Mean [1]: −24.75%
- Average Severity of Weekly Symptomatic RP Attacks, Percent Change from Baseline, Median [1]: −19.08%
- Average Severity (0-10) of Weekly Symptomatic RP Attacks, Mean [2]: 3.40
- Average Severity (0-10) of Weekly Symptomatic RP Attacks, Median [2]: 3.18
- Average Severity of Weekly Symptomatic RP Attacks, Change from Baseline, Mean [2]: −1.24
- Average Severity of Weekly Symptomatic RP Attacks, Change from Baseline, Median [2]: −1.06
- Average Severity of Weekly Symptomatic RP Attacks, Percent Change from Baseline, Mean [2]: −24.75%
- Average Severity of Weekly Symptomatic RP Attacks, Percent Change from Baseline, Median [2]: −19.08%
- Average Severity of Weekly RP Attacks (All Attacks), Change from Baseline, Mean [3]: −1.02
- Average Severity of Weekly RP Attacks (All Attacks), Change from Baseline, Median [3]: −0.96
- Average Severity of Weekly RP Attacks (All Attacks), Mean [3]: 3.35
- Average Severity of Weekly RP Attacks (All Attacks), Median [3]: 3.06
- Average Severity of Weekly RP Attacks (All Attacks), Percent Change from Baseline, Mean [3]: −21.83%
- Average Severity of Weekly RP Attacks (All Attacks), Percent Change from Baseline, Median [3]: −16.40%
- Average Severity of Weekly Symptomatic RP Attacks (Mean) [4]: 2.85
- Average Severity of Weekly Symptomatic RP Attacks (Median) [4]: 2.40
- Average Severity of Weekly Symptomatic RP Attacks, Change from Baseline, Mean [4]: −1.06
- Average Severity of Weekly Symptomatic RP Attacks, Change from Baseline, Median [4]: −0.33
- Average Severity of Weekly Symptomatic RP Attacks, Percent Change from Baseline, Mean [4]: −24.28%
- Average Severity of Weekly Symptomatic RP Attacks, Percent Change from Baseline, Median [4]: −12.02%
- Average Severity of Weekly Symptomatic RP Attacks (Mean) [5]: 5.06
- Average Severity of Weekly Symptomatic RP Attacks (Median) [5]: 5.06
- Average Severity of Weekly Symptomatic RP Attacks, Change from Baseline, Mean [5]: −1.79
- Average Severity of Weekly Symptomatic RP Attacks, Change from Baseline, Median [5]: −1.79
- Average Severity of Weekly Symptomatic RP Attacks, Percent Change from Baseline, Mean [5]: −26.14%
- Average Severity of Weekly Symptomatic RP Attacks, Percent Change from Baseline, Median [5]: −26.14%
- Average Severity of Weekly RP Attacks (All Attacks), Change from Baseline, Mean [6]: −1.02
- Average Severity of Weekly RP Attacks (All Attacks), Change from Baseline, Median [6]: −0.96
- Average Severity of Weekly RP Attacks (All Attacks), Mean [6]: 3.35
- Average Severity of Weekly RP Attacks (All Attacks), Median [6]: 3.06
- Average Severity of Weekly RP Attacks (All Attacks), Percent Change from Baseline, Mean [6]: −21.83%
- Average Severity of Weekly RP Attacks (All Attacks), Percent Change from Baseline, Median [6]: −16.40%
- Average Severity of Weekly RP Attacks (All Attacks), Percent Change from Baseline, Mean [7]: −21.36%
- Average Severity of Weekly RP Attacks (All Attacks), Percent Change from Baseline, Median [7]: −9.57%
- Average Severity of Weekly RP Attacks (All Attacks), Change from Baseline, Mean [8]: −0.84
- Average Severity of Weekly RP Attacks (All Attacks), Change from Baseline, Median [8]: −0.39
- Average Severity of Weekly RP Attacks (All Attacks), Mean [8]: 2.78
- Average Severity of Weekly RP Attacks (All Attacks), Median [8]: 2.40
- Average Severity of Weekly RP Attacks (All Attacks), Percent Change from Baseline, Mean [9]: −23.23%
- Average Severity of Weekly RP Attacks (All Attacks), Percent Change from Baseline, Median [9]: −23.23%
- Average Severity of Weekly RP Attacks (All Attacks), Change from Baseline, Mean [10]: −1.53
- Average Severity of Weekly RP Attacks (All Attacks), Change from Baseline, Median [10]: −1.53
- Average Severity of Weekly RP Attacks (All Attacks), Mean [10]: 5.06
- Average Severity of Weekly RP Attacks (All Attacks), Median [10]: 5.06
- Severity (Pooled Cilnidipine (n = 7)): −16%
- Average Severity (0-10) of Weekly Symptomatic RP Attacks, Mean [11]: 2.79
- Average Severity (0-10) of Weekly Symptomatic RP Attacks, Median [11]: 2.40
- Average Severity of Weekly Symptomatic RP Attacks, Change from Baseline, Mean [11]: −0.87
- Average Severity of Weekly Symptomatic RP Attacks, Change from Baseline, Median [11]: −0.33
- Average Severity of Weekly Symptomatic RP Attacks, Percent Change from Baseline, Mean [11]: −19.22%
- Average Severity of Weekly Symptomatic RP Attacks, Percent Change from Baseline, Median [11]: −12.02%
- Average Severity (0-10) of Weekly Symptomatic RP Attacks, Mean [12]: 2.79
- Average Severity (0-10) of Weekly Symptomatic RP Attacks, Median [12]: 2.40
- Average Severity of Weekly Symptomatic RP Attacks, Change from Baseline, Mean [12]: −0.87
- Average Severity of Weekly Symptomatic RP Attacks, Change from Baseline, Median [12]: −0.33
- Average Severity of Weekly Symptomatic RP Attacks, Percent Change from Baseline, Mean [12]: −19.22%
- Average Severity of Weekly Symptomatic RP Attacks, Percent Change from Baseline, Median [12]: −12.02%
- Average Severity (0-10) of Weekly Symptomatic RP Attacks, Mean [13]: 2.79
- Average Severity (0-10) of Weekly Symptomatic RP Attacks, Median [13]: 2.40
- Average Severity of Weekly Symptomatic RP Attacks, Change from Baseline, Mean [13]: −0.87
- Average Severity of Weekly Symptomatic RP Attacks, Change from Baseline, Median [13]: −0.33
- Average Severity of Weekly Symptomatic RP Attacks, Percent Change from Baseline, Mean [13]: −19.22%
- Average Severity of Weekly Symptomatic RP Attacks, Percent Change from Baseline, Median [13]: −12.02%
- Average Severity of Weekly RP Attacks (All Attacks), Percent Change from Baseline, Mean [14]: −17.99%
- Average Severity of Weekly RP Attacks (All Attacks), Percent Change from Baseline, Median [14]: −7.69%
- Average Severity of Weekly RP Attacks (All Attacks), Change from Baseline, Mean [15]: −0.71
- Average Severity of Weekly RP Attacks (All Attacks), Change from Baseline, Median [15]: −0.20
- Average Severity of Weekly RP Attacks (All Attacks), Mean [15]: 2.55
- Average Severity of Weekly RP Attacks (All Attacks), Median [15]: 2.40
